Tests used:
HGGX6 [1] = H3.3 G34R paediatric high-grade glioma line; test: area under dose-response curve of % growth inhibition (log2 RLU vs DMSO / staurosporine), 1e-11 to 1e-4 M (% x log10 M); higher = more growth inhibition
Summary of the method: (§1)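 On 1% Geltrex-coated 384-well plates, patient-derived pHGG/DIPG cell lines and astrocytes were treated in triplicate across 10 threefold dilutions (mean top concentration 35 μM) for 7 days, with iAstro treated for 3 days, at 37 °C, 5% CO2. Log2-transformed CellTiter-Glo luminescence was normalised per plate to % activity between solvent and positive controls. Area under the curve was obtained by the trapezoid rule from a log-logistic fit, or from a smoothing spline when that fit failed.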

DIPGX37 [2] = H3.3 K27M diffuse intrinsic pontine glioma line; test: as above
Summary of the method: as §1

HGGX39 [3] = paediatric high-grade glioma line; test: as above
Summary of the method: as §1

DIPGX29 [4] = H3.3 K27M diffuse intrinsic pontine glioma line; test: as above
Summary of the method: as §1

HGGX6 [5] = test: EC50 (inflection of fitted growth-inhibition curve) (log10 M)
Summary of the method: (§2)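 Patient-derived pHGG/DIPG cell lines and astrocyte controls were grown on 1% Geltrex-coated 384-well plates and exposed by pin tool to a 10-point threefold dilution series (mean top concentration 35 μM), in triplicate. Exposure was 7 days (iAstro 3 days) at 37 °C, 5% CO2. CellTiter-Glo luminescence was log2-transformed, normalised per plate to % activity between negative (solvent) and positive control wells, and pooled. EC50 and maximal response (yFin) come from the lowest-AICc three- or four-parameter log-logistic fit.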

DIPGX37 [6] = test: as above
Summary of the method: as §2

HGGX39 [7] = test: as above
Summary of the method: as §2

DIPGX29 [8] = test: as above
Summary of the method: as §2

HGGX6 [9] = test: maximal growth inhibition (yFin) relative to DMSO / staurosporine; higher = more efficacious
Summary of the method: as §2

DIPGX37 [10] = test: as above
Summary of the method: as §2

HGGX39 [11] = test: as above
Summary of the method: as §2

DIPGX29 [12] = test: as above
Summary of the method: as §2

| SMILES | area under dose-response curve (HGGX6 [1]) | area under dose-response curve (DIPGX37 [2]) | area under dose-response curve (HGGX39 [3]) | area under dose-response curve (DIPGX29 [4]) | EC50 (log10 M) (HGGX6 [5]) | EC50 (log10 M) (DIPGX37 [6]) | EC50 (log10 M) (HGGX39 [7]) | EC50 (log10 M) (DIPGX29 [8]) | maximal growth inhibition (HGGX6 [9]) | maximal growth inhibition (DIPGX37 [10]) | maximal growth inhibition (HGGX39 [11]) | maximal growth inhibition (DIPGX29 [12]) |
| --- | --- | --- | --- | --- | --- | --- | --- | --- | --- | --- | --- | --- |
| CC[C@H](CC#N)OC(=O)N[C@@H](C)c1cccc(NC(=O)Nc2ccc(-c3cnco3)c(OC)c2)c1 [AVN-944] | 48 | 84.4 | 54.3 | 79.5 | -5.95 | -6.4 | -5.67 | -6.32 | 27.9% | 35.2% | 39.3% | 34.3% |
| O=C1COc2c(CCNCCN(C(=O)CCNCCc3ccc(Cl)c(Cl)c3)C3CCCCC3)ccc(O)c2N1 [AZ505] | 61.6 | 33.8 | 49.1 | 70.9 | -4.83 | -4.56 | -4.82 | -4.86 | 74.2% | 60.3% | 61.1% | 82.3% |
| COc1cc(OC2CCN(C)CC2)ccc1Nc1ncc2c(n1)n(C1CCCC1)c(=O)n2C [AZ3146] | 86.9 | 86.8 | 88.5 | 92.5 | -4.82 | -4.79 | -4.85 | -4.86 | 96.5% | 110% | 105% | 103% |
| Nc1nc2n[nH]nc2c(=O)[nH]1 [AZAGUANINE-8] | 31.2 | 58.7 | 74.2 | 45 | -5.25 | -5.07 | -5.31 | -5.14 | 25.9% | 53.8% | 54.2% | 38.3% |
| CC1=C(C(=O)OC(C)C)C(c2cccc([N+](=O)[O-])c2)C(C(=O)OC2CN(C(c3ccccc3)c3ccccc3)C2)=C(N)N1 (stereo unspecified) [AZELNIDIPINE] | 80.8 | 83.2 | 93.9 | 74.8 | -4.89 | -4.91 | -4.94 | -4.91 | 91.3% | 86.1% | 99.9% | 81.9% |
| Cc1c(-c2ccc(O)cc2)n(Cc2ccc(OCCN3CCCCCC3)cc2)c2ccc(O)cc12 [BAZEDOXIFENE] | 70.5 | 75.4 | 87.8 | 76.7 | -4.93 | -4.91 | -5 | -4.97 | 75.9% | 83.5% | 87.3% | 79.1% |
| CN(C)CCCOc1nn(Cc2ccccc2)c2ccccc12 [BENZYDAMINE] | 63.8 | 105 | 123 | 61.8 | -5.19 | -5.21 | -5.5 | -5.29 | 53.3% | 85.5% | 81.4% | 47.7% |
| Cc1nnc(C[C@@H]2C=C(c3ccc(Cl)cc3)c3ccccc3-n3c(C)nnc32)o1 [BET-BAY 002] | 35.1 | 58.2 | 42.3 | 29.9 | -5.39 | -6.21 | -5.19 | -5.5 | 27% | 26.3% | 39.7% | 21.8% |
